Data from the supplement of paper PMC11451515.

Test system: P12-Ichikawa
Experiment: cell viability relative to DMSO control; higher = less cytotoxic
Conditions: 48 h
Method in brief: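 Cells were incubated for 48 h at 37°C before CellTiter-Glo One luminescence was read. The cells were NOMO1 or SEM (500 cells/well) or P12-Ichikawa (1000 cells/well) leukemia cells, adapted for at least four passages in each medium and seeded in 1536-well plates (5 μl). Dosing used library compounds in DMSO applied by pin over 11 threefold points, 47 μM to 0.79 nM. Viability is the per-plate percentage of DMSO wells, with cell-free wells as background.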

[1] = HPLM + 10% dialyzed FBS, 0.000781 µM
[2] = HPLM + 10% dialyzed FBS, 0.00234 µM
[3] = HPLM + 10% dialyzed FBS, 0.00702 µM
[4] = HPLM + 10% dialyzed FBS, 0.0211 µM
[5] = HPLM + 10% dialyzed FBS, 0.0632 µM
[6] = HPLM + 10% dialyzed FBS, 0.19 µM
[7] = HPLM + 10% dialyzed FBS, 0.569 µM
[8] = HPLM + 10% dialyzed FBS, 1.71 µM
[9] = HPLM + 10% dialyzed FBS, 5.12 µM
[10] = HPLM + 10% dialyzed FBS, 15.4 µM
[11] = HPLM + 10% dialyzed FBS, 46.1 µM
[12] = RPMI 5 mM glucose + 10% FBS, 0.000781 µM
[13] = RPMI 5 mM glucose + 10% FBS, 0.00234 µM
[14] = RPMI 5 mM glucose + 10% FBS, 0.00702 µM
[15] = RPMI 5 mM glucose + 10% FBS, 0.0211 µM
[16] = RPMI 5 mM glucose + 10% FBS, 0.0632 µM
[17] = RPMI 5 mM glucose + 10% FBS, 0.19 µM
[18] = RPMI 5 mM glucose + 10% FBS, 0.569 µM
[19] = RPMI 5 mM glucose + 10% FBS, 1.71 µM
[20] = RPMI 5 mM glucose + 10% FBS, 5.12 µM
[21] = RPMI 5 mM glucose + 10% FBS, 15.4 µM
[22] = RPMI 5 mM glucose + 10% FBS, 46.1 µM
[23] = RPMI 5 mM glucose + 10% dialyzed FBS, 0.000781 µM
[24] = RPMI 5 mM glucose + 10% dialyzed FBS, 0.00234 µM
[25] = RPMI 5 mM glucose + 10% dialyzed FBS, 0.00702 µM
[26] = RPMI 5 mM glucose + 10% dialyzed FBS, 0.0211 µM
[27] = RPMI 5 mM glucose + 10% dialyzed FBS, 0.0632 µM
[28] = RPMI 5 mM glucose + 10% dialyzed FBS, 0.19 µM
[29] = RPMI 5 mM glucose + 10% dialyzed FBS, 0.569 µM
[30] = RPMI 5 mM glucose + 10% dialyzed FBS, 1.71 µM
[31] = RPMI 5 mM glucose + 10% dialyzed FBS, 5.12 µM
[32] = RPMI 5 mM glucose + 10% dialyzed FBS, 15.4 µM
[33] = RPMI 5 mM glucose + 10% dialyzed FBS, 46.1 µM

Structure (SMILES) | cell viability [1] [%] | cell viability [2] [%] | cell viability [3] [%] | cell viability [4] [%] | cell viability [5] [%] | cell viability [6] [%] | cell viability [7] [%] | cell viability [8] [%] | cell viability [9] [%] | cell viability [10] [%] | cell viability [11] [%] | cell viability [12] [%] | cell viability [13] [%] | cell viability [14] [%] | cell viability [15] [%] | cell viability [16] [%] | cell viability [17] [%] | cell viability [18] [%] | cell viability [19] [%] | cell viability [20] [%] | cell viability [21] [%] | cell viability [22] [%] | cell viability [23] [%] | cell viability [24] [%] | cell viability [25] [%] | cell viability [26] [%] | cell viability [27] [%] | cell viability [28] [%] | cell viability [29] [%] | cell viability [30] [%] | cell viability [31] [%] | cell viability [32] [%] | cell viability [33] [%]
C[C@H]1Oc2cc(cnc2N)-c2c(nn(C)c2C#N)CN(C)C(=O)c2ccc(F)cc21 | 118 | 120 | 119 | 120 | 120 | 124 | 122 | 110 | 112 | 112 | 96.3 | 120 | 122 | 123 | 113 | 123 | 119 | 119 | 112 | 114 | 114 | 105 |  |  |  |  |  |  |  |  |  |  | 
C[C@@H](N)C1CC[C@@H](CC1)C(=O)NC2=CC=NC=C2 (some centres undefined) | 109 | 112 | 111 | 115 | 112 | 113 | 123 | 116 | 125 | 116 | 104 | 117 | 109 | 115 | 125 | 118 | 127 | 121 | 114 | 118 | 109 | 112 | 110 | 121 | 119 | 122 | 121 | 130 | 124 | 134 | 120 | 121 | 118
CS[C@H]1SC[C@@H]2C(=O)N(C)[C@H](C(C)C)C(=O)OC[C@H](NC(=O)c3cnc4ccccc4n3)C(=O)N[C@H](C)C(=O)N(C)[C@H]1C(=O)N(C)[C@H](C(C)C)C(=O)OC[C@H](NC(=O)c1cnc3ccccc3n1)C(=O)N[C@H](C)C(=O)N2C | 93.5 | 97.9 | 97.7 | 59 | 6.91 | 9.39 | 11.9 | 11.9 | 9.92 | 9.92 | 13.2 | 88 | 98.9 | 74.9 | 44.9 | 6.52 | 7.51 | 8.83 | 9.76 | 7.33 | 7.34 | 6.52 | 88.5 | 91.2 | 68.6 | 29.6 | 6.86 | 8.69 | 9.15 | 9.6 | 8.79 | 11.4 | 11.8
C[C@H](Cc1ccc(O)c(O)c1)[C@@H](C)Cc1ccc(O)c(O)c1 | 115 | 114 | 120 | 122 | 118 | 116 | 117 | 116 | 114 | 87.5 | 18.1 | 125 | 130 | 123 | 128 | 130 | 126 | 118 | 125 | 115 | 75.9 | 16.3 | 124 | 121 | 119 | 118 | 124 | 120 | 109 | 114 | 115 | 70.9 | 20.6
Oc1ccc([C@@H]2Oc3ccc(O)cc3[C@@H]3CCC[C@@H]32)cc1 | 86.9 | 90.2 | 94.7 | 93.5 | 92.7 | 95.1 | 94.3 | 90.5 | 87.4 | 40.6 | 12.2 | 88.5 | 82.6 | 92.7 | 88.7 | 90 | 87 | 85.5 | 85.4 | 82.3 | 34.1 | 12 | 76.8 | 80.7 | 87.2 | 85.6 | 82.8 | 76.6 | 82.4 | 76.5 | 72.8 | 44.6 | 14.4
NC[C@H]1O[C@H](O[C@H]2[C@H](O)[C@@H](O[C@H]3O[C@H](CO)[C@@H](O)[C@H](N)[C@H]3O)[C@H](N)C[C@@H]2N)[C@H](N)C[C@@H]1O | 112 | 98.8 | 110 | 106 | 117 | 109 | 106 | 99.8 | 110 | 101 | 96.6 | 102 | 111 | 95.9 | 116 | 107 | 106 | 97.1 | 85.9 | 94 | 98.5 | 105 | 110 | 116 | 117 | 119 | 112 | 88.5 | 79.7 | 91.6 | 91 | 94.6 | 117
CCOC(=O)[C@@H](N)CCC(=O)N[C@@H](CSCc1ccccc1)C(=O)N[C@@H](C(=O)OCC)c1ccccc1 | 109 | 124 | 128 | 126 | 131 | 131 | 129 | 132 | 139 | 140 | 123 |  |  |  |  |  |  |  |  |  |  |  |  |  |  |  |  |  |  |  |  |  | 
N=C(N)NC(=N)N1CCOCC1 | 104 | 108 | 107 | 113 | 106 | 116 | 109 | 104 | 106 | 103 | 108 | 103 | 98.3 | 90.7 | 93.2 | 97.8 | 98.1 | 99.7 | 93.5 | 87.8 | 92.5 | 92.4 | 101 | 105 | 92.4 | 102 | 109 | 93.8 | 99.8 | 96.8 | 91.2 | 86.8 | 98.9
CC[C@@H]1C(=O)N(C)c2cnc(Nc3ccc(C(=O)NC4CCN(C)CC4)cc3OC)nc2N1C1CCCC1 | 116 | 123 | 112 | 84.8 | 13.1 | 13.3 | 13.4 | 16 | 16.5 | 11.4 | 4.01 | 126 | 123 | 116 | 107 | 15.6 | 15.3 | 17.5 | 15.4 | 15 | 12.9 | 4.84 | 116 | 124 | 121 | 114 | 19.4 | 18.7 | 19.7 | 20.8 | 21.2 | 17.8 | 4.69
N[C@@H](Cc1ccc(O)c(O)c1)C(=O)O | 122 | 124 | 118 | 119 | 130 | 123 | 127 | 122 | 125 | 131 | 121 |  |  |  |  |  |  |  |  |  |  |  |  |  |  |  |  |  |  |  |  |  | 
Cc1ccc(/C=N/NC(=O)c2ccccc2Oc2ccccc2)o1 | 95.5 | 107 | 91.4 | 96.5 | 100 | 98.3 | 94.6 | 94.9 | 89.7 | 89.7 | 79.4 | 94 | 99 | 90.6 | 88.5 | 91.3 | 90.8 | 91.6 | 92.2 | 95.1 | 85.8 | 63.9 | 85.2 | 82.6 | 87.7 | 89.4 | 90.3 | 90.3 | 88.8 | 82.4 | 82.3 | 86.4 | 78.3
O=C1N\C=N/C2=C1C=N[NH]2 | 83.8 | 89.6 | 83.5 | 92.1 | 83.9 | 93.2 | 91.1 | 87.6 | 72.4 | 77.8 | 25.4 | 83.9 | 91.4 | 84 | 87.9 | 80.6 | 81.7 | 82.8 | 79.1 | 84.2 | 84.4 | 67.3 | 81.7 | 86.2 | 79.1 | 88.7 | 78.7 | 79.3 | 90.5 | 85.2 | 87.1 | 85.2 | 68
COc1ccc2[nH]cc(CCNC(C)=O)c2c1 |  |  |  |  |  |  |  |  |  |  |  | 125 | 125 | 112 | 121 | 122 | 123 | 112 | 111 | 109 | 108 | 112 |  |  |  |  |  |  |  |  |  |  | 
CC(C)n1cnc2c(NCCc3ccc(O)cc3)nc(-c3csc4ccccc34)nc21 | 105 | 111 | 109 | 114 | 119 | 115 | 107 | 117 | 24.9 | 6.01 | 2.93 | 106 | 108 | 116 | 107 | 116 | 112 | 116 | 129 | 125 | 53.5 | 3.44 | 98.3 | 109 | 112 | 112 | 119 | 114 | 118 | 119 | 130 | 38.6 | 2.43
Cc1cnc(Nc2ccc(N3CCN(C)CC3)cc2)nc1Nc1cccc([S+](=O)([O-])NC(C)(C)C)c1 | 133 | 104 | 109 | 121 | 118 | 109 | 103 | 90.8 | 88.7 | 10.6 | 2.36 | 112 | 120 | 119 | 120 | 124 | 111 | 117 | 91.3 | 80.2 | 16.2 | 7.55 | 108 | 115 | 114 | 113 | 106 | 107 | 102 | 92.7 | 76.6 | 48.4 | 4.62
CCOC(=O)O[C@]1(C(=O)OCCl)CC[C@H]2[C@@H]3CCC4=CC(=O)C=C[C@]4(C)[C@H]3[C@@H](O)C[C@@]21C | 97.6 | 102 | 99.3 | 107 | 105 | 118 | 101 | 104 | 86.1 | 101 | 102 | 95.9 | 95.8 | 95.7 | 95 | 110 | 102 | 111 | 100 | 76 | 97.1 | 88.5 | 89 | 93.3 | 94.6 | 98.3 | 99.3 | 91.1 | 98.4 | 102 | 83.4 | 98.5 | 90.3
CCCCCN(CCC12CC3CC(CC(C3)C1)C2)C(=O)NCCCc1ccncc1 | 113 | 112 | 110 | 114 | 115 | 104 | 109 | 108 | 104 | 97.1 | 97.8 | 101 | 109 | 112 | 107 | 107 | 105 | 111 | 106 | 109 | 92.7 | 99.1 | 115 | 110 | 109 | 118 | 114 | 114 | 109 | 113 | 105 | 101 | 98.9
